How the values were obtained:
human α4β2 NNR = target: T1, human α4β2 NNR (Homo sapiens, UniProt P17787+P43681); test: Calcium flux assay (FLIPR), potentiation of submaximal nicotine response in HEK 293 cells expressing α4β2; type: cell-based; conditions: HEK 293 cells expressing human α4β2; potentiation of submaximal (EC20-30%) agonist such as nicotine; read-out: EC50 (α4β2 PAM)
T1 construct: expressed in transfected cells
Excerpt: One manner to characterize α4β2 PAM activity is by characterization in clonal cell lines (for example, human embryonic kidney 293 cells) expressing the human neuronal nicotinic acetylcholine receptor subtype α4β2, particularly by use of Fluorescent Image Plate Reader technology. Effects on calcium flux or membrane potential changes can be assessed. Such assays have been reported and further details for carrying out the assays can be obtained in International Publication No. WO 2006/114400. Another method to identify and characterize allosteric modulator activity is by expressing the α4β2 subunits in Xenopus oocytes, and by measuring electrophysiological effects on ligand-evoked current responses as previously described in Curtis, L., et al., Molecular Pharmacology, 61: 127-135, 2002.
To determine the effectiveness of representative compounds of this invention as ligands for α4β2 PAM activity, the compounds of the invention can be evaluated according to the Calcium Flux Assay described below.
Calcium Flux Assays using Cells Expressing NNR Subtypes
Human embryonic kidney (HEK) 293 cells stably expressing human α4β2 or α3β4 combinations are grown to confluency in 162 cm^2 tissue culture flasks in DMEM media supplemented with 10% FBS and 25 μg/mL zeocin and 200 μg/mL hygromycin B. Cells expressing rat or ferret subunits may also be used. For assessing α3* or α7* selectivity, IMR-32 cells may also be used. IMR-32 neuroblastoma cells (ATCC) are grown to confluency in 162 cm^2 tissue culture flasks in minimum essential media supplemented with 10% FBS and 1 mM sodium pyruvate, 1% non-essential amino acids and 1% antibiotic-antimycotic. For the calcium flux assay, the cells are then dissociated using cell dissociation buffer and 100-150 μL per well of 3.5×10^5 cells/mL cell suspension (˜50,000-100,000 cells/well) was plated into 96-well black plates (poly-D-lysine precoated) with clear bottom and maintained for 24-48 hours in a tissue culture incubator at 37° C. under an atmosphere of 5% CO2: 95% air. Other clonal cell lines or primary cell cultures that express endogenous α4* nicotinic receptors may also be used in this assay. Calcium flux was measured using calcium-3 assay kit (Molecular Devices, Sunnyvale, Calif.) or fluo-4 (Invitrogen). A stock solution of the dye was prepared by dissolving each vial supplied by the vendor in Hank's balanced salt solution buffer (HBSS) or 150 mM NMDG, 20 mM calcium chloride containing 10 mM HEPES. The stock solution was diluted 1:20 using the same buffer before use. The growth media was removed from the cells. The cells were loaded with 100 μL of the dye per well and incubated at room temperature for up to one hour for HEK 293 clonal stable cell lines or 30 minutes-45 minutes at 37° C. for IMR-32 cells. Fluorescence measurements were read simultaneously from all the wells by a Fluorometic Imaging Plate Reader (FLIPR) at an excitation wavelength of 480 nm and an emission wavelength of 520 nm. Baseline fluorescence was measured for the first 6 seconds at which 3× concentrations of modulator/test compounds were added to the cell plate at 50 μL and incubated for five minutes. The fluorescence intensity was captured every second for the first 1 minute followed by every 5 seconds for an additional 4 minutes. This procedure was followed by 50 μL of 4× concentration of agonist and readings were taken for a period of 3-5 minutes as described above.
The ability of test compounds to positively modulate the response (i.e., increase the response) induced by a submaximal concentration of agonist (EC20-30%) such as nicotine is measured. Potentiation is measured based on peak fluorescence responses by screening compounds at fixed concentrations or in a concentration-response manner to derive EC50 values. The concentration dependence of changes in fluorescence responses is fitted by nonlinear regression analysis (GraphPad Prism, San Diego, Calif.) to obtain EC50 values. […]

[1] = target: T2, hERG cardiac potassium channel (Homo sapiens, UniProt Q12809); test: [3H]dofetilide/HEK-293 membrane competition binding assay; conditions: displacement of [3H]dofetilide, HEK-293 membrane homogenates expressing hERG; Ki from IC50 by Cheng-Prusoff
T2 construct: expressed in transfected cells; host or cells: HEK-293 cells (membrane homogenate)
Excerpt: Drugs that block the cardiac potassium channel encoded by the human ether-a-go-go gene (hERG) have been associated clinically with QT interval prolongation, proarrhythmia, and in some rare cases, sudden cardiac death. The identification of drugs that block hERG has become a critical component of the safety profile. The [^3H]dofetilide/HEK-293 membrane competition binding assay described below permits the ranking of compounds for their potential to block the hERG potassium channel.
[^3H]dofetilide/HEK-293 Membrane Competition Binding Assay
The binding affinity of test drugs for the hERG cardiac potassium channel was determined by their ability to displace tritiated dofetilide (a class III antiarrhythmic drug and potent hERG blocker) in membrane homogenates from HEK-293 cells heterogously expressing the hERG channel. The assay was performed as previously described (Diaz, G.; Daniell, K.; Leitza, S. T.; Martin, R. L.; Su, Z.; McDermott, J. S.; Cox, B. F.; Gintant, G. A. The [^3H]dofetilide binding assay is a predictive screening tool for hERG blockade and proarrhythmia: Comparison of intact cell and membrane preparations and effects of altering [K^+]O. Journal of Pharmacological and Toxicological Methods 2004, 50, 187-199.). Briefly, drug dilutions were prepared from 10 mM dimethyl sulfoxide stocks and the following were added to a 96-well polystyrene plate (Perkin-Elmer Optiplate): 20 μL of assay binding buffer (for total bounds), or 1 μM astemizole (for non-specific bounds), or test drug, 50 μL of [^3H]dofetilide (20 nM, ˜80 Ci/mmol specific activity), and 130 μL of membrane homogenate (final protein concentration of 30 μg per well). The plates were incubated at ambient temperature for 45 minutes, aspirated onto GF/B filter plates (Perkin-Elmer), and washed with 2 mL of cold wash buffer. After allowing the plates to dry, 50 μL of scintillant (Perkin-Elmer MicroScint 20) were added to each well and the radioactivity was counted in a Perkin-Elmer Topcount NXT scintillation counter. IC50 determinations were calculated from competition curves using 6 drug concentrations, half-log apart, starting at a high concentration of 100 μM (final assay dimethyl sulfoxide concentration=1%) using a four-parameter logistic equation. Ki values were derived from the calculated IC50 values by using the Cheng and Prusoff (Cheng, Y.; Prusoff, W. H. Relationship between the inhibition constant (KI) and the concentration of inhibitor which causes 50 percent inhibition (I50) of an enzymatic reaction. Biochemical Pharmacology 1973, 22(23), 3099-3108) equation (Ki=IC50/1+[ligand]/Kd) using Kd values for [^3H]dofetilide obtained from saturation assays previously described (Diaz et al., 2004).

T1 sequence (P43681 29-627 limits assumed): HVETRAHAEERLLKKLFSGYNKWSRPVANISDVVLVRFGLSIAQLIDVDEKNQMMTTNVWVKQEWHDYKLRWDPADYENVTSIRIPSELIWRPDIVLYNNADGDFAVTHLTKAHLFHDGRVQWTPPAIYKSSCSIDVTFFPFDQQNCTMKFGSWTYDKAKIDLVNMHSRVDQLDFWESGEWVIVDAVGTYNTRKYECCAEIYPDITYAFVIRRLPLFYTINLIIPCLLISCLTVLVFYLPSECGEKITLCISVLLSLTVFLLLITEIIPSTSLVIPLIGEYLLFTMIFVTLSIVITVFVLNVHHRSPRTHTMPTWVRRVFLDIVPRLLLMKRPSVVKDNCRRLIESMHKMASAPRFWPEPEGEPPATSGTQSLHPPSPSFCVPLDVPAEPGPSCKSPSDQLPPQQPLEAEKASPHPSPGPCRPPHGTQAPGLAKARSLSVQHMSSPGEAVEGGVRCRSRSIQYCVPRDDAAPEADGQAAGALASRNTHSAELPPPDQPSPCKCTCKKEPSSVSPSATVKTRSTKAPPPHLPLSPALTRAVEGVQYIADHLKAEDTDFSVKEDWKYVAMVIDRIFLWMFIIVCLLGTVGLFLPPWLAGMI
T1 sequence (P17787 26-502): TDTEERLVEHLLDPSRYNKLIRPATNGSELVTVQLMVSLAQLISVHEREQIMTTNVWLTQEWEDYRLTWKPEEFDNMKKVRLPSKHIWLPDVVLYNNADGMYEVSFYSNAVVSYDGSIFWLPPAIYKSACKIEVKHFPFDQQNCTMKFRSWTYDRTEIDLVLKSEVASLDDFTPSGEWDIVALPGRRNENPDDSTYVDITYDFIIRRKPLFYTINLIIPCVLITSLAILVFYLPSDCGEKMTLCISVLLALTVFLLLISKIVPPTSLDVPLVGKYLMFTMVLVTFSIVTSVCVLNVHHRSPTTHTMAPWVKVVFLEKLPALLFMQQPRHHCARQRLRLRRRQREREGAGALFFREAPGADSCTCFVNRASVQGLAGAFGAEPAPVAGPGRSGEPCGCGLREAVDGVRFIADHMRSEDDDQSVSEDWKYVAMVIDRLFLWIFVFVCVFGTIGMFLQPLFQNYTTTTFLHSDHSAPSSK
T2 sequence (Q12809 whole entry): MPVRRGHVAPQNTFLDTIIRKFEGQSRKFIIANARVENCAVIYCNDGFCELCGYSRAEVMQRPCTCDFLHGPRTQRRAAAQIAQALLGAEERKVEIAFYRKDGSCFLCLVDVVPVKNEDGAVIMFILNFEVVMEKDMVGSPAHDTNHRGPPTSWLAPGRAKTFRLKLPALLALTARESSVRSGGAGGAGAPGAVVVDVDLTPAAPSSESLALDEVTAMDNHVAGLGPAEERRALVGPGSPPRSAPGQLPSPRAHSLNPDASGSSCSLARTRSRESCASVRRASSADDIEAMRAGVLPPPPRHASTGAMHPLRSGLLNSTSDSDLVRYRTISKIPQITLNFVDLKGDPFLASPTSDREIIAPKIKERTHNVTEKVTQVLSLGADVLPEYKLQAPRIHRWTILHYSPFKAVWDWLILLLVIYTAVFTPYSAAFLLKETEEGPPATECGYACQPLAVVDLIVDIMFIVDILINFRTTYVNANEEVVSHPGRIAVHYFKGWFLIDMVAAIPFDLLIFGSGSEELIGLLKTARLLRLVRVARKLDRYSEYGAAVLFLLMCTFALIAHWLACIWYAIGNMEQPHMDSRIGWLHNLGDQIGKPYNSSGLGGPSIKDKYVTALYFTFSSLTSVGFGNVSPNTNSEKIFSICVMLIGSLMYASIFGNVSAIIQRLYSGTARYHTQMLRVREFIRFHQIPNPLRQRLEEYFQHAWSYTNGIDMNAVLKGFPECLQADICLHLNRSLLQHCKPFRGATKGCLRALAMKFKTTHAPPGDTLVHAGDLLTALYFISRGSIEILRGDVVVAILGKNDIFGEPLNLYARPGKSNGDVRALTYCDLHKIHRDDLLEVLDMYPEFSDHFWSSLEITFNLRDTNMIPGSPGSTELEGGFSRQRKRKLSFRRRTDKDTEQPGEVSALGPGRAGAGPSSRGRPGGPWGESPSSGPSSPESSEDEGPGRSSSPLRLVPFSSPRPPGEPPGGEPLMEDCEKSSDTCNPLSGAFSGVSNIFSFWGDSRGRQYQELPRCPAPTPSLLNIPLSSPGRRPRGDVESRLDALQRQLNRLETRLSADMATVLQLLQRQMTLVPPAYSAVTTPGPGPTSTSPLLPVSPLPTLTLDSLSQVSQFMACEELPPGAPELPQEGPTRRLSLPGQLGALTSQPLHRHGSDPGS

EC50 (human α4β2 NNR) [µM]	Structure (SMILES)	Ki [1] [µM]
0.16	COc1ccc(C(=O)N2CCC3(CCN(C)CC3)CC2)cc1Cl [Example 4, 3-(3-chloro-4-methoxybenzoyl)-9-methyl-3,9-diazaspiro[5.5]undecane]	16
0.04	COc1c(Cl)cc(C(=O)N2CCC3(CCN(C)CC3)CC2)cc1Cl [Example 5, 3-(3,5-dichloro-4-methoxybenzoyl)-9-methyl-3,9-diazaspiro[5.5]undecane]	19
1.69	COc1ccc(CC(=O)N2CCC3(CCN(C)CC3)CC2)cc1F [Example 10, 3-[(3-fluoro-4-methoxyphenyl)acetyl]-9-methyl-3,9-diazaspiro[5.5]undecane]	

Further lines, the compound ahead of its results:

Structure (SMILES)	EC50 (human α4β2 NNR) [µM]	Ki [1] [µM]
COc1cc(C(=O)N2CCC3(CCN(C)CC3)CC2)ccc1F [Example 2, 3-(4-fluoro-3-methoxybenzoyl)-9-methyl-3,9-diazaspiro[5.5]undecane]	0.97	> 53
COc1ccc(C(=O)N2CCC3(CCN(C)CC3)CC2)cc1F [Example 3, 3-(3-fluoro-4-methoxybenzoyl)-9-methyl-3,9-diazaspiro[5.5]undecane]	4.3	13
COc1cc(C(=O)N2CCC3(CCN(C)CC3)CC2)cc(Cl)c1OC [Example 6, 3-(3-chloro-4,5-dimethoxybenzoyl)-9-methyl-3,9-diazaspiro[5.5]undecane]	0.36	> 54
COc1ccc(NC(=O)N2CCC3(CCN(C)CC3)CC2)cc1F [Example 7, N-(3-fluoro-4-methoxyphenyl)-9-methyl-3,9-diazaspiro[5.5]undecane-3-carboxamide]	1.62	8.5
COc1ccc(NC(=O)N2CCC3(CCN(C)CC3)CC2)cc1Cl [Example 8, N-(3-chloro-4-methoxyphenyl)-9-methyl-3,9-diazaspiro[5.5]undecane-3-carboxamide]	0.61	
COc1cc(OC)c(NC(=O)N2CCC3(CCN(C)CC3)CC2)cc1Cl [Example 9, N-(5-chloro-2,4-dimethoxyphenyl)-9-methyl-3,9-diazaspiro[5.5]undecane-3-carboxamide]	3.74	
